# Reference: patent publication US8058285B2, “Substituted pyrido [3′, 2′: 4, 5] thieno [3, 2-D] pyrimidines and pyrido [3′, 2′: 4, 5] furo [3, 2-D] pyrimidines used as inhibitors of the PDE-4 and/or the release of TNF-ALPHA” (The Medicines Company (Leipzig) GmbH, priority 2004, dated 2011)
# Counter-ions that a name gives are not always drawn.
# Target: T1, PDE-4A (Homo sapiens, UniProt P27815)
# T1 construct: PDE-4A catalytic domain comprising amino acids 342-704; made in house; host or cells: Escherichia coli
# T1 sequence (P27815 342-704): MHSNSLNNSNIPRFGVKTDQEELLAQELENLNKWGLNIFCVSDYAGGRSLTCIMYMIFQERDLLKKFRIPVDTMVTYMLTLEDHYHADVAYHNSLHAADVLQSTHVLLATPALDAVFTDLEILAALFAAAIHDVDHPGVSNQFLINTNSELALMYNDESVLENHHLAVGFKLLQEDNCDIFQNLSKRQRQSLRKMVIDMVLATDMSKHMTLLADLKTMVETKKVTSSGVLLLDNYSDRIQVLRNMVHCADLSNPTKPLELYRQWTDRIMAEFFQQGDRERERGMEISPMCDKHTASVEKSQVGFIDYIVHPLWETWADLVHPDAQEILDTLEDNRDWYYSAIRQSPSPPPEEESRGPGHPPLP
# Test: PDE-4A inhibitory assay (SPA)
# Format: biochemical
# From the text: Human recombinant PDE-4A catalytic domain comprising amino acids 342-704 was cloned into Escherichia coli and expressed, as described by W. Richter et al., Protein Expression and Purification (2000) 19: 375-383. The other posphodiesterases were either obtained from cell lines of human origin (TPH1 monocytes line for PDE-1, MCF7 for PDE-5) or expressed recombinantly in sf9 insect cells (for PDE-3A, PDE-3B, PDE-7A and PDE-4D) in accordance with an adapted method by Luckow, V. A. et al., in: Recombinant DNA Technology & Applications., (1991) eds. Prokop, Bajpai, R. K. & Ho, C. S., pp 97-152.
# The phosphodiesterase activity was determined by the SPA assay as described by the manufacturer Amersham Biosciences and by Horton J. K and Baxendale P. M., Methods Mol. Biol. (1995) 41: 91-105.
# The reaction mixtures contained 100 mM Tris-HCl (pH 7.5), 5 mM MgCl2, 3.8 mM 2-mercaptoethanol, and 1 μM cAMP or cGMP as a substrate, the inhibitors at different concentrations and also further components required for the detection of the individual isoenzymes (see below). The reaction was started by adding the enzyme. The operating volume is 100 μl in the wells of a white 96-Well microtiter plate. The test substances were produced as stock solutions in DMSO. The DMSO concentration in the reaction batch was 1% v/v. The PDE activity is not impaired with this DMSO concentration. Having started the reaction by the addition of enzyme, the samples were incubated at 22° C. for 20 min. The reaction was stopped by the addition of SPA bead suspension which contains the zinc sulfate concentration provided according to the manufacturer. Then, the beads are allowed to sediment for 30 min and the plates are analyzed on the luminescence microtiter plate reader Fluostar Optima (BMG Labtechologies).
# [^3H]-cAMP was used as a substrate for determining the activity of PDE-2, -3, -4 and -7 and [^3H]-cGMP for determining the activity of PDE-5. The non-specific enzyme activities were determined in the presence of 100 μM rolipram (for PDE-4) and in the presence of 100 μM IBMX (for PDE-3 and -5) and subtracted from the test values. The incubation samples of the PDE-3 assay contain 10 μM rolipram to inhibit possible contaminations by PDE-4. The PDE-2 activity is tested using a SPA assay by Amersham Biosciences in the presence of the PDE-2 activator 5 μM cGMP. […] The selectivity as to PDEs 2, 3 and 5 has a factor of 100 to 10 000.
row,SMILES,IC50 [nM]
1,"CCOc1nc(N2CCNCC2)c2sc3nc(C(C)C)cc(C(C)C)c3c2n1 [2-Ethoxy-7,9-di-iso-propyl-4-(piperazin-1-yl)-pyrido[3′,2′:4,5]thieno[3,2-d]pyrimidine]",2 to 50
2,"CCCc1nc(N2CCNCC2)c2sc3nc(-c4ccccc4)cc(C)c3c2n1 [9-Methyl-7-phenyl-4-(piperazin-1-yl)-2-n-propyl-pyrido[3′,2′:4,5]thieno[3,2-d]pyrimidine]",2 to 50
3,"CCOc1nc(N2CCNCC2)nc2c1sc1nc(-c3ccccn3)cc(C(F)(F)F)c12 [4-Ethoxy-2-piperazin-1-yl-7-(2-pyridyl)-9-trifluoromethyl-pyrido[3′,2′:4,5]thieno[3,2-d]pyrimidine]",2 to 50
4,"CCOc1nc(N2CCNCC2)nc2c1sc1nc(N3CCOCC3)c3c(c12)CCN(C)C3 [8-Ethoxy-3-methyl-5-morpholino-10-piperazin-1-yl-pyrimido[4′,5′:4,5]thieno[2,7]-1,2,3,4-tetrahydro-naphthyridine]",2 to 50
5,"CCOc1nc(N2CCNCC2)nc2c1sc1nc3c(c(C(F)(F)F)c12)CCc1cc(OC)ccc1-3 [5,6-Dihydro-11-ethoxy-3′-methoxy-9-piperazin-1-yl-7-trifluoromethyl-benzo[h]pyrimido[4′,5′:4,5]thieno[2,3-b]quinoline]",< 2
6,"Cc1cc(-c2ccccc2)nc2sc3c(OC(C)C)nc(N4CCNCC4)nc3c12 [9-Methyl-7-phenyl-2-(piperazin-1-yl)-4-iso-propoxy-pyrido[3′,2′:4,5]thieno[3,2-d]pyrimidine]",2 to 50
7,"CCOc1nc(N2CCNCC2)nc2c1sc1nc(N3CCN(c4ncccn4)CC3)cc(CC)c12 [4-Ethoxy-9-ethyl-7-(4-(pyrimidyl-2-yl)piperazin-1-yl)-2-piperazin-1-yl-pyrido[3′,2′:4,5]thieno[3,2-d]pyrimidine]",< 2
8,"CCOc1nc(N2CCNCC2)nc2c1sc1nc(C(C)C)cc(C(C)C)c12 [4-Ethoxy-7,9-di-iso-propyl-2-(piperazin-1-yl)-pyrido[3′,2′:4,5]thieno[3,2-d]pyrimidine]",2 to 50
9,"CCOc1nc(N2CCNCC2)nc2c1sc1nc(-c3ccc(C(O)c4cccnc4)cc3)nc(C)c12 (centres unmarked) [4-Ethoxy-7-(4-[hydroxy{3-pyridyl}methyl]-phenyl)-9-methyl-2-piperazin-1-yl-thieno[2,3-d:4,5-d′]dipyrimidine]",2 to 50
10,"CCOc1nc(N2CCNCC2)nc2c1sc1nc(N3CCOCC3)cc(C)c12 [4-Ethoxy-9-methyl-7-morpholino-2-(piperazin-1-yl)-pyrido[3′,2′:4,5]thieno[3,2-d]pyrimidine]",2 to 50
11,"CCCCOc1ccc(Oc2ccc(-c3nc(C)c4c(n3)sc3c(OCC)nc(N5CCNCC5)nc34)cc2)cc1 [7-(4-[4-n-Butoxy-phenoxy]phenyl)-4-ethoxy-9-methyl-2-piperazin-1-yl-thieno[2,3-d:4,5-d′]dipyrimidine]",2 to 50
12,"CCCOc1nc(N2CCNCC2)c2sc3nc(-c4ccccc4)cc(C)c3c2n1 [9-Methyl-7-phenyl-4-piperazin-1-yl-2-n-propoxy-pyrido[3′,2′:4,5]thieno[3,2-d]pyrimidine]",2 to 50
13,"Cc1cc(-c2ccccc2)nc2sc3c(N4CCNCC4)nc(OC(C)C)nc3c12 [9-Methyl-7-phenyl-4-(piperazin-1-yl)-2-iso-propoxy-pyrido[3′,2′:4,5]thieno[3,2-d]pyrimidine]",2 to 50

# Continued, values first:
row,IC50 [nM],SMILES
1,< 2,"CCOc1nc(N2CCNCC2)nc2c1sc1nc(-c3ccc(-c4cccnc4)cc3)nc(C)c12 [4-Ethoxy-9-methyl-2-piperazin-1-yl-7-(4-[3-pyridyl]-phenyl)-thieno[2,3-d:4,5-d′]dipyrimidine]"
2,2 to 50,"CCOc1nc(N2CCNCC2)nc2c1sc1nc(-c3ccc(N4CCOCC4)cc3)cc(C(F)(F)F)c12 [4-Ethoxy-7-(4-morpholinophenyl)-2-(piperazin-1-yl)-9-trifluoromethyl-pyrido[3′,2′:4,5]thieno[3,2-d]pyrimidine]"
3,< 2,"CCOc1nc(N2CCNCC2)nc2c1sc1nc(-c3ccc(OC)cc3)cc(CC)c12 [4-Ethoxy-9-ethyl-7-(4-methoxyphenyl)-2-(piperazin-1-yl)-pyrido[3′,2′:4,5]thieno[3,2-d]pyrimidine]"
4,2 to 50,"CCOc1nc(N2CCNCC2)c2sc3nc(-c4ccc(C)cc4)cc(C)c3c2n1 [2-Ethoxy-9-methyl-7-(4-methyl-phenyl)-4-(piperazin-1-yl)-pyrido[3′,2′:4,5]thieno[3,2-d]pyrimidine]"
5,< 2,"CCOc1nc(N2CCNCC2)nc2c1sc1nc(-c3ccc(Br)cc3)cc(CC)c12 [7-(4-Bromo-phenyl)-4-ethoxy-9-ethyl-2-(piperazin-1-yl)-pyrido[3′,2′:4,5]thieno[3,2-d]pyrimidine]"
6,< 2,"CCOc1nc(N2CCNCC2)nc2c1sc1nc(-c3ccc(NC(=O)OC)cc3)cc(C(F)(F)F)c12 [4-(4-Ethoxy-9-trifluoromethyl-2-piperazin-1-yl-pyrido[3′,2′:4,5]thieno[3,2-d]pyrimidin-7-yl)-phenyl-carbamic acid methyl ester]"
7,2 to 50,"CCOc1nc(N2CCNCC2)nc2c1sc1nc(-c3ccc(-c4ccccc4)cc3)nc(C)c12 [7-(4-Biphenyl)-4-ethoxy-9-methyl-2-piperazin-1-yl-thieno[2,3-d:4,5-d′]dipyrimidine]"
8,< 2,"CCOc1nc(N2CCNCC2)nc2c1sc1nc(-c3ccc(C)cc3)cc(CC)c12 [4-Ethoxy-9-ethyl-7-(4-methyl-phenyl)-2-(piperazin-1-yl)-pyrido[3′,2′:4,5]thieno[3,2-d]pyrimidine]"
9,2 to 50,"CCOc1nc(N2CCNCC2)nc2c1sc1nc(-c3ccc([N+](=O)[O-])cc3)cc(C(F)(F)F)c12 [4-Ethoxy-7-(4-nitro-phenyl)-2-piperazin-1-yl-9-trifluoromethyl-pyrido[3′,2′:4,5]thieno[3,2-d]pyrimidine]"
10,2 to 50,"CCOc1nc(N2CCNCC2)nc2c1sc1nc(-c3ccc(-c4cncnc4)cc3)nc(C)c12 [4-Ethoxy-9-methyl-2-piperazin-1-yl-7-(4-[5-pyrimidinyl]-phenyl)-thieno[2,3-d:4,5-d′]dipyrimidine]"
11,< 2,"CCOc1nc(N2CCNCC2)nc2c1sc1nc(-c3ccc(Oc4ccccc4)cc3)nc(C)c12 [4-Ethoxy-9-methyl-7-(4-phenoxy-phenyl)-2-piperazin-1-yl-thieno[2,3-d:4,5-d′]dipyrimidine]"
12,< 2,"CCOc1nc(N2CCNCC2)nc2c1sc1nc(-c3ccc(C)cc3)cc(C(C)C)c12 [4-Ethoxy-7-(4-methyl-phenyl)-9-iso-propyl-2-(piperazin-1-yl)-pyrido[3′,2′:4,5]thieno-[3,2-d]pyrimidine]"
13,< 2,"CCOc1nc(N2CCNCC2)nc2c1sc1nc(-c3ccc(-c4ccc(OC)c(OC)c4)cc3)nc(C)c12 [7-(3′,4′-Dimethoxybiphen-4-yl)-4-ethoxy-9-methyl-2-piperazin-1-yl-thieno[2,3-d:4,5-d′]dipyrimidine]"
14,2 to 50,"CCOc1nc(N2CCNCC2)nc2c1sc1nc(-c3ccc(Cl)cc3)cc(C(F)F)c12 [9-Difluoromethyl-7-(4-chloro-phenyl)-4-ethoxy-2-piperazin-1-yl-pyrido[3′,2′:4,5]thieno[3,2-d]pyrimidine]"
15,< 2,"CCOc1nc(N2CCNCC2)nc2c1sc1nc(-c3ccc(SC)cc3)cc(C(F)(F)F)c12 [4-Ethoxy-7-(4-methylthiophenyl)-2-(piperazin-1-yl)-9-trifluoromethyl-pyrido[3′,2′:4,5]thieno[3,2-d]pyrimidine]"
16,2 to 50,"CCCOc1nc(N2CCNCC2)c2sc3nc(-c4ccc(OCC)cc4)cc(CC)c3c2n1 [7-(4-Ethoxy-phenyl)-9-ethyl-4-(piperazin-1-yl)-2-n-propoxy-pyrido[3′,2′:4,5]thieno[3,2-d]pyrimidine]"
17,2 to 50,"CCOc1nc(N2CCNCC2)nc2c1sc1nc(-c3ccc(-c4cccc(C(=O)OC)c4)cc3)nc(C)c12 [4-(4-Ethoxy-9-methyl-2-piperazin-1-yl-thieno[2,3-d:4,5-d′]dipyrimidin-7-yl)-biphenyl-3′-carboxylic acid methyl ester]"
18,2 to 50,"CCOc1nc(N2CCNCC2)nc2c1sc1nc(-c3ccc(-c4cccc(C(=O)O)c4)cc3)nc(C)c12 [4-(4-Ethoxy-9-methyl-2-piperazin-1-yl-thieno[2,3-d:4,5-d′]dipyrimidin-7-yl)-biphenyl-3′-carboxylic acid potassium salt]"
19,< 2,"CCOc1nc(N2CCNCC2)nc2c1sc1nc(-c3ccc4c(c3)OCCO4)cc(CC)c12 [4-Ethoxy-9-ethyl-7-(2,3-dihydrobenzo[b][1,4]dioxin-6-yl)-2-(piperazin-1-yl)-pyrido[3′,2′:4,5]thieno[3,2-d]pyrimidine]"
